Counter-ions that a name gives are not always drawn.
Experiments:
[1] = system: mouse bone-marrow derived macrophages (BMDM); assay: CSF-1-driven mouse bone-marrow derived macrophages proliferation assay (BrDU incorporation); format: cell-based; settings: Mus musculus, BMDM, 30 hrs culture, read-out: mCSF driven proliferation BMDM (Mouse) IC-50
Experimental: CSF-1-Driven Mouse Bone-Marrow Derived Macrophages Assay
Macrophages are derived by culturing mouse bone marrow in alpha-MEM supplemented with 10% FCS and 50 ng/ml recombinant mouse CSF-1 in bacteriologic dishes. On the sixth day, macrophages are detached from dishes, washed, and resuspended to 0.05 million cells/ml in alpha-MEM containing 10% FCS. One hundred ul of cell suspension are distributed per well into 96 well culture plates. Wells are further supplemented with the addition of 50 ul media containing 15 ng/ml CSF-1, 3 uM Indomethacin, and 3× of a dilution series of test compounds. The cells are cultured for 30 hrs at 37 degrees and 5% CO2. During the final six hours, cultures are supplemented with an additional 30 ul of media containing a 1:500 dilution of bromodeoxyuridine (BrDU). At the end of the culture period, the plates are spun at 1000 RPM for 1 minute and 130 ul of media is removed with a pipet and replaced with 150 ul of fixative solution for 1 hour @ room temperature. The fixative is then dispelled from the plates and the plates allowed to air dry. Incorporation of BrDU into the fixed, dried cells is quantified using a specific ELISA.

[2] = molecular target: c-fms (Homo sapiens (Human), UniProt P07333); assay: Autophosphorylation fluorescence polarization competition immunoassay for c-fms inhibition; format: biochemical; settings: averages of three independent measurements; table head says 1 nM c-fms, method says 10 nM c-fms, 1 mM ATP; read-out: 1 nM c-fms; peptide Pi assay IC-50
Experimental: Fluorescence Polarization Competition Immunoassay
The assay buffer used was 100 mM 4-(2-hydroxyethyl)piperazine 1-ethanesulfonic acid (HEPES), pH 7.5, 1 mM 1,4-dithio-DL-threitol (DTT), 0.01% (v/v) Tween-20. Compounds were diluted in assay buffer containing 4% dimethylsulfoxide (DMSO) just prior to the assay. To each well, 5 μL of compound were added followed by the addition of 3 μL of a mix containing 33 nM c-fms (Johnson & Johnson PRD) and 16.7 mM MgCl2 (Sigma) in assay buffer. The kinase reaction was initiated by adding 2 μL of 5 mM ATP (Sigma) in assay buffer. […] Control reactions were ran in each plate: in positive and negative control wells, assay buffer (made 4% in DMSO) was substituted for the compound; in addition, positive control wells received 1.2 μL of 50 mM ethylenediaminetetraaceticacid (EDTA).
The plates were incubated at room temperature for 45 min. At the end of the incubation, the reaction was quenched with 1.2 μL of 50 mM EDTA (EDTA was not added to the positive control wells at this point; see above). Following a 5-min incubation, each well received 10 μL of a 1:1:3 mixture of anti-phosphotyrosine antibody, 10×, PTK green tracer, 10× (vortexed), FP dilution buffer, respectively (all from PanVera, cat. #P2837). The plate was covered, incubated for 30 min at room temperature and the fluorescence polarization was read on the Analyst. The instrument settings were: 485 nm excitation filter; 530 nm emission filter; Z height: middle of well; G factor: 0.93. […] The reported IC50 values are averages of three independent measurements.

c-fms, sequence (P07333 20-972): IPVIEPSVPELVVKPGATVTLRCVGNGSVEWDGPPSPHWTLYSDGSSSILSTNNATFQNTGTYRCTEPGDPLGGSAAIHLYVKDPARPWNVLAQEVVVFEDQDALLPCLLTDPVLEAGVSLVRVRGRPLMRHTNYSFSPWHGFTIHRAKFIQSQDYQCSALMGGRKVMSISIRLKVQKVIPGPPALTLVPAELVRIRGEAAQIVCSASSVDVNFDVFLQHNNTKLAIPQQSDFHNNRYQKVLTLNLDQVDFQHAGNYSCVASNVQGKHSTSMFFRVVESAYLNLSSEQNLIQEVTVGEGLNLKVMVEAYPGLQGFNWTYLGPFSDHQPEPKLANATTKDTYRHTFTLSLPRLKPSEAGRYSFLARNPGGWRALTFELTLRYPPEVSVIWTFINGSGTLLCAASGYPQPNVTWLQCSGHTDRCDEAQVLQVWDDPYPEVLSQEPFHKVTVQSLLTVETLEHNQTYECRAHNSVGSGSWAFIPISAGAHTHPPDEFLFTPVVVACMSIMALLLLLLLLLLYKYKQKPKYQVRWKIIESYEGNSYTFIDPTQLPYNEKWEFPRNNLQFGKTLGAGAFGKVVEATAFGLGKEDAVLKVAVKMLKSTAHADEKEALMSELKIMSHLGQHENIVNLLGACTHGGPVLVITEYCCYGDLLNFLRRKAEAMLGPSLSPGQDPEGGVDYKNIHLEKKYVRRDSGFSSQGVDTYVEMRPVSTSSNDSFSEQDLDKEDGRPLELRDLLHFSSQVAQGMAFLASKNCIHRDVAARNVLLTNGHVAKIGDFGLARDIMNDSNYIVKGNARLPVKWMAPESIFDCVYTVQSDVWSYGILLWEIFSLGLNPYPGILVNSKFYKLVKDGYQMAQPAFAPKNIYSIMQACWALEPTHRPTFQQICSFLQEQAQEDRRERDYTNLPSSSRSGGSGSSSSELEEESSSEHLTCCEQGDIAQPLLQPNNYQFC

Compound	IC50 [2] [nM]	IC50 [1] [nM]
CC1(C)CC=C(c2cc(C3(O)CCOCC3)ccc2NC(=O)c2ncc(C#N)[nH]2)CC1 [Example 1, 5-Cyano-1H-imidazole-2-carboxylic acid [2-(4,4-dimethyl-cyclohex-1-enyl)-4-(4-hydroxy-tetrahydro-pyran-4-yl)-phenyl]-amide]	0.7	4
CN(C)CCOC1(c2ccc(NC(=O)c3ncc(C#N)[nH]3)c(C3=CCC(C)(C)CC3)c2)CCOCC1 [Example 2, 5-Cyano-1H-imidazole-2-carboxylic acid [4-[4-(2-dimethylamino-ethoxy)-tetrahydro-pyran-4-yl]-2-(4,4-dimethyl-cyclohex-1-enyl)-phenyl]-amide trifluoroacetic acid salt]	0.42	2.2
CC1(C)CC=C(c2cc(C3(OCC(=O)O)CCOCC3)ccc2NC(=O)c2ncc(C#N)[nH]2)CC1 [Example 3, {4-[4-[(5-Cyano-1H-imidazole-2-carbonyl)-amino]-3-(4,4-dimethyl-cyclohex-1-enyl)-phenyl]-tetrahydro-pyran-4-yloxy}-acetic acid]	1.7	–
COCCNC1(c2ccc(NC(=O)c3nc(C#N)c[nH]3)c(C3=CCC(C)(C)CC3)c2)CCOCC1 [Example 4, 4-Cyano-1H-imidazole-2-carboxylic acid {2-(4,4-dimethyl-cyclohex-1-enyl)-4-[4-(2-methoxy-ethylamino)-tetrahydro-pyran-4-yl]-phenyl}-amide]	1.8	14
CC1(C)CC=C(c2cc(C3(N)CCOCC3)ccc2NC(=O)c2ncc(C#N)[nH]2)CC1 [Example 5, 5-Cyano-1H-imidazole-2-carboxylic acid [4-(4-amino-tetrahydro-pyran-4-yl)-2-(4,4-dimethyl-cyclohex-1-enyl)-phenyl]-amide]	0.5	2.4
CC1(C)CC=C(c2cc(C3(N4CCOCC4)CCOCC3)ccc2NC(=O)c2ncc(C#N)[nH]2)CC1 [Example 6, 5-Cyano-1H-imidazole-2-carboxylic acid [2-(4,4-dimethyl-cyclohex-1-enyl)-4-(4-morpholin-4-yl-tetrahydro-pyran-4-yl)-phenyl]-amide]	1.6	15
CN(C)C1(c2ccc(NC(=O)c3ncc(C#N)[nH]3)c(C3=CCC(C)(C)CC3)c2)CCOCC1 [Example 7, 5-Cyano-1H-imidazole-2-carboxylic acid [4-(4-dimethylamino-tetrahydro-pyran-4-yl)-2-(4,4-dimethyl-cyclohex-1-enyl)-phenyl]-amide]	0.67	11
CN1CCN(C2(c3ccc(NC(=O)c4ncc(C#N)[nH]4)c(C4=CCC(C)(C)CC4)c3)CCOCC2)CC1 [Example 8, 5-Cyano-1H-imidazole-2-carboxylic acid {2-(4,4-dimethyl-cyclohex-1-enyl)-4-[4-(4-methyl-piperazin-1-yl)-tetrahydro-pyran-4-yl]-phenyl}-amide]	4	15
CC1(C)CC=C(c2cc(C3(N4CCN(CC(=O)O)CC4)CCOCC3)ccc2NC(=O)c2ncc(C#N)[nH]2)CC1 [Example 10, (4-{4-[4-[(5-Cyano-1H-imidazole-2-carbonyl)-amino]-3-(4,4-dimethyl-cyclohex-1-enyl)-phenyl]-tetrahydro-pyran-4-yl}-piperazin-1-yl)-acetic acid trifluoroacetic acid salt]	7.9	> 300
N#Cc1c[nH]c(C(=O)Nc2ccc(C3(O)CCS(=O)(=O)CC3)cc2C2=CCCCC2)n1 [Example 15, 4-Cyano-1H-imidazole-2-carboxylic acid [2-cyclohex-1-enyl-4-(4-hydroxy-1,1-dioxo-hexahydro-1λ^6-thiopyran-4-yl)-phenyl]-amide]	–	14

Second part, led by results:

IC50 [2] [nM]	Compound	IC50 [1] [nM]
1.9	CC1(C)CC=C(c2cc(C3(N4CCNCC4)CCOCC3)ccc2NC(=O)c2ncc(C#N)[nH]2)CC1 [Example 9, 5-Cyano-1H-imidazole-2-carboxylic acid [2-(4,4-dimethyl-cyclohex-1-enyl)-4-(4-piperazin-1-yl-tetrahydro-pyran-4-yl)-phenyl]-amide]	100
2.9	CC1(C)CC=C(c2cc(C3(O)CCSCC3)ccc2NC(=O)c2nc(C#N)c[nH]2)CC1 [Example 11, 4-Cyano-1H-imidazole-2-carboxylic acid [2-(4,4-dimethyl-cyclohex-1-enyl)-4-(4-hydroxy-tetrahydro-thiopyran-4-yl)-phenyl]-amide]	35
1.1	CC1(C)CC=C(c2cc(C3(O)CCS(=O)(=O)CC3)ccc2NC(=O)c2nc(C#N)c[nH]2)CC1 [Example 12, 4-Cyano-1H-imidazole-2-carboxylic acid [2-(4,4-dimethyl-cyclohex-1-enyl)-4-(4-hydroxy-1,1-dioxo-hexahydro-1λ^6-thiopyran-4-yl)-phenyl]-amide]	31
0.8	CC(=O)N1CCC(N)(c2ccc(NC(=O)c3nc(C#N)c[nH]3)c(C3=CCC(C)(C)CC3)c2)CC1 [Example 13, 4-Cyano-1H-imidazole-2-carboxylic acid [4-(1-acetyl-4-amino-piperidin-4-yl)-2-(4,4-dimethyl-cyclohex-1-enyl)-phenyl]-amide acetic acid salt]	8.1
3.9	N#Cc1c[nH]c(C(=O)Nc2ccc(C3(O)CCSCC3)cc2C2=CCCCC2)n1 [Example 14, 4-Cyano-1H-imidazole-2-carboxylic acid [2-cyclohex-1-enyl-4-(4-hydroxy-tetrahydro-thiopyran-4-yl)-phenyl]-amide]	9.5
0.67	COC(=O)C1(c2ccc(NC(=O)c3nc(C#N)c[nH]3)c(C3=CCC(C)(C)CC3)c2)CCOCC1 [Example 16, 4-[4-[(4-Cyano-1H-imidazole-2-carbonyl)-amino]-3-(4,4-dimethyl-cyclohex-1-enyl)-phenyl]-tetrahydro-pyran-4-carboxylic acid methyl ester]	46
0.56	CC1(C)CC=C(c2cc(C3(C(=O)O)CCOCC3)ccc2NC(=O)c2nc(C#N)c[nH]2)CC1 [Example 17, 4-[4-[(4-Cyano-1H-imidazole-2-carbonyl)-amino]-3-(4,4-dimethyl-cyclohex-1-enyl)-phenyl]-tetrahydro-pyran-4-carboxylic acid]	> 300
3.6	N#Cc1c[nH]c(C(=O)Nc2ccc(C3(C(=O)O)CCOCC3)cc2C2=CCCCC2)n1 [Example 18, 4-{4-[(4-Cyano-1H-imidazole-2-carbonyl)-amino]-3-cyclohex-1-enyl-phenyl}-tetrahydro-pyran-4-carboxylic acid]	300
1.8	N#Cc1c[nH]c(C(=O)Nc2ccc(C3(C(N)=O)CCOCC3)cc2C2=CCCCC2)n1 [Example 19, 4-Cyano-1H-imidazole-2-carboxylic acid [4-(4-carbamoyl-tetrahydro-pyran-4-yl)-2-cyclohex-1-enyl-phenyl]-amide]	19
1.8	N#Cc1c[nH]c(C(=O)Nc2ccc(C3(CO)CCOCC3)cc2C2=CCCCC2)n1 [Example 20, 4-Cyano-1H-imidazole-2-carboxylic acid [2-cyclohex-1-enyl-4-(4-hydroxymethyl-tetrahydro-pyran-4-yl)-phenyl]-amide]	20
1.6	N#Cc1c[nH]c(C(=O)Nc2ccc(C3(CN4CCOCC4)CCOCC3)cc2C2=CCCCC2)n1 [Example 21, 4-Cyano-1H-imidazole-2-carboxylic acid [2-cyclohex-1-enyl-4-(4-morpholin-4-ylmethyl-tetrahydro-pyran-4-yl)-phenyl]-amide]	7.9
0.8	CC1(C)CC=C(c2cc(C3(c4nn[nH]n4)CCOCC3)ccc2NC(=O)c2nc(C#N)c[nH]2)CC1 [Example 22, 4-Cyano-1H-imidazole-2-carboxylic acid {2-(4,4-dimethyl-cyclohex-1-enyl)-4-[4-(2H-tetrazol-5-yl)-tetrahydro-pyran-4-yl]-phenyl}-amide]	> 300
6.4	CC1(C)CC=C(c2cc(C3(C(=O)O)CCOCC3)ccc2NC(=O)c2cc(C#N)c[nH]2)CC1 [Example 23, 4-[4-[(4-Cyano-1H-pyrrole-2-carbonyl)-amino]-3-(4,4-dimethyl-cyclohex-1-enyl)-phenyl]-tetrahydro-pyran-4-carboxylic acid]	> 300
